Assay results reported in patent US11013705B2, “Methods and compositions for supporting renal health” (The Regents of the University of California, priority 2019, dated 2021).
Entries after “also recorded” stand apart in the source; their conditions may differ.

Columns and labels:
[1] = system: Han:SPRD rats; experiment: Oral BHB treatment in drinking water of juvenile Han:SPRD PKD rats, post-natal weeks 3-8; assay type: in vivo, rat
Experimental: Han:SPRD rats, a non-orthologous model of PKD with a mutation in Anks6 were placed on a time-restricted feeding (TRF) regime wherein TRF animals had access to food for an 8-h period within their 12-h dark cycle. Animals were treated for 5 weeks from post-natal weeks 3-8. […] Additionally, TRF-treated animals had increased levels of BHB and reduced blood glucose indicative of ketosis. Oral BHB Treatment Prevents Polycystic Disease Progression in Juvenile Rats. To investigate if BHB might affect PKD progression, Han:SPRD rats were treated with BHB from post-natal weeks 3-8 in the context of ad libitum feeding with normal, high-carbohydrate chow (NC). BHB was administered as a sodium and potassium salt in the drinking water ad libitum at a dose equivalent to that recommended as a dietary supplement in BHB supplement drinks. Control cohorts received either normal water or water supplemented with the molar equivalents of salt provided in the BHB supplement (a mixture of NaCl/KCl).

[2] = system: Han:SPRD rats; experiment: BHB, citrate and combined BHB-citrate treatment in drinking water of Han:SPRD PKD rats, post-natal weeks 3-8; assay type: in vivo, rat; settings: for dose dependence of benefit on PKD progression: varying concentrations, citrate particularly at the 120 mM dosage
Experimental: To investigate BHB, citrate, and combined BHB and citrate effects on PKD progression, Han:SPRD rats were treated with BHB or a combination of BHB and citrate from post-natal weeks 3-8 in the context of ad libitum feeding with normal, high-carbohydrate chow (NC). In the BHB treatments, BHB was administered as a sodium and potassium salt in the drinking water ad libitum at a dose equivalent to that recommended as a dietary supplement in BHB supplement drinks. In the citrate treatments, citrate was administered as a combination of tripotassium citrate and citric acid at a (0.82/1) ratio at a dose equivalent to that recommended utilized in citrate dietary supplements. Control cohorts received either normal water or water supplemented with the molar equivalents of salt provided in the BHB or BHB-citrate supplements (a mixture of NaCl/KCl). […]

[3] = PKD rats, 5 weeks BHB in drinking water
[4] = PKD rats, 5 weeks BHB in drinking water, normal chow, vs water- and salt-treated controls

**Q.** `CC(O)CC(=O)O` (stereo not drawn) [BHB, beta-hydroxybutyric acid] was tested. Which “effect on body weight” value ([1]; 5 weeks BHB in drinking water) did it give?
**A.** Its value is “no effect”.

**Q.** And the “effect on wild-type kidneys and other organs” value ([1]; 5 weeks BHB in drinking water)?
**A.** The value was “Neither wild-type kidneys nor other organs were affected”.

**Q.** And the fibrosis [1, 3]?
**A.** Its fibrosis is “strong reduction”.

**Q.** What about the “kidney function (assessed by creatinine)” value [1, 3] of the same molecule?
**A.** Its value is “improved”.

**Q.** And the myofibroblasts [1, 3]?
**A.** The myofibroblasts was “almost complete elimination; also recorded: almost complete absence”.

**Q.** And the proliferation [1, 3]?
**A.** The proliferation was “inhibition”.

**Q.** What about the “2-kidney to body weight ratio” value [1, 4] of the same molecule?
**A.** The value was “striking and unexpected reductions”.

**Q.** And the cystic area [1, 4]?
**A.** The cystic area was “striking and unexpected reductions”.

**Q.** What about the “kidneys of PKD animals at the gross and histological level” value ([1]; after 5 weeks of treatment) of the same molecule?
**A.** The value was “nearly indistinguishable from kidneys of wild-type animals”.

**Q.** And the “effect on body weight” value ([2]; 5 weeks in drinking water)?
**A.** The value was “no effect”.

**Q.** What about the “effect on wild-type kidneys and other organs” value ([2]; 5 weeks in drinking water) of the same molecule?
**A.** Its value is “Neither wild-type kidneys nor other organs were affected”.

**Q.** And the “2-kidney to body weight ratio” value ([2]; PKD rats, 5 weeks, vs water- and salt-treated controls (FIG. 8A))?
**A.** The value was “striking reductions”.

**Q.** What about the cystic area ([2]; PKD rats, 5 weeks, vs water- and salt-treated controls (FIG. 8B)) of the same molecule?
**A.** Its cystic area is “striking reductions”.

**Q.** And the “kidneys of PKD animals at the gross and histological level” value ([2]; after 5 weeks of treatment)?
**A.** Its value is “nearly indistinguishable from kidneys of wild-type animals”.

**Q.** And the “dose dependence of benefit on PKD progression” value [2]?
**A.** The value was “dose-dependent benefits”.

**Q.** With citrate as the molecule, how does the “dose dependence of benefit on PKD progression” value [2] read?
**A.** Its value is “dose-dependent therapeutic effects”.
